“Also recorded” adds a separate entry of the source. Values belong to the compound of their own block, whether it stands above or below them.
Legend:
[1] = target: T1, MC4R (Homo sapiens, UniProt P32245); assay: MC4R CRE β-lactamase reporter assay in HEK 293 (P3D8) MC4 cell lines; assay type: cell-based; settings: cells pretreated with the MC4 antagonist
T1 construct: endogenous in cells; host or cells: HEK 293 P3D8 (4XCRE-β-lactamase reporter) clones, e.g. MC4.49
Method: (§1) Unless otherwise noted, β-lactamase reporter expression was determined by plating cells into 96 well plates at approx. 10^5 cells/well, and loading with 1 μM CCF2-AM in Hanks' balanced salt solution (HBSS) containing phenol red at 22 ° C. for a period between 1 and 2 h. For visual determination, an epifluorescence microscope (Zeiss 25CFL) equipped with a 10× Fluor objective was used. The filter set contained a 405/20 exciter, a 420 dichroic mirror, and a 435 long-pass filter (Chroma Technologies, Brattleboro Vt.). Fluorescence was then quantified on a Cytofluor 4000 fluorescence plate reader using 395/12.5 nm excitation and emission was detected via 460/50 (blue) and 535/40 (green) band pass filters. Emission intensities from blank wells containing no cells were subtracted from wells containing cells. Calibration of β-lactamase enzyme levels were determined in cell lysates as described by Zlokarnik et al.(1998) Science 279 84-88. Replicate samples of cells were lysed by three cycles of freeze thawing in PBS. β-Lactamase activity in the lysate was measured from the rate of hydrolysis of 1 nmol of CCF2 in 100 μl in a Cytofluor fluorimeter. […]
Three out of the eight characterized MC4 cell lines were chosen for further pharmacological characterization that included a dose response curve with NDP-α-MSH. […] The calculated values were consistent with published data. […]

[2] = target: T2, PPARγ (Homo sapiens, UniProt P37231); assay: PPARγ Gal4-DBD UAS β-lactamase reporter assay, HEK293 clone 4G5; assay type: cell-based; settings: 10 μM or 32 μM BADGE 1 h at 37° C. before rosiglitazone 1 nM-10 μM
T2 construct: expressed in transfected cells; host or cells: HEK293 7xUAS-β-lactamase line (HEKUASBLA), clone 4G5; The targeting vector was integrated by homologous recombination
T2 sequence (P37231 238-503 limits assumed): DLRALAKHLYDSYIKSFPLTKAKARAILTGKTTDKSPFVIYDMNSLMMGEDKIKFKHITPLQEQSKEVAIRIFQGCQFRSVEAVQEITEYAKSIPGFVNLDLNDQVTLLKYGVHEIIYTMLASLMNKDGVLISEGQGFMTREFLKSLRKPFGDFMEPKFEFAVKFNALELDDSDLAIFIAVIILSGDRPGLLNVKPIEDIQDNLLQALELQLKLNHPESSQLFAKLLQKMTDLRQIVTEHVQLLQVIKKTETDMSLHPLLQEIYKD
Method: as §1
Single cells were sorted into 96 well plates and expanded. […] At least 16 h before the assay, cell clones on one copy of the assay plates were stimulated as described above. β-lactamase activity was detected in individual clones as described in Example 6. […]

[3] = target: T3, Vanilloid Receptor-1 (VR1) (Homo sapiens, UniProt Q8NER1); assay: VR1 calcium response assay in HEK-293 clones (VIPRII, 96-well); assay type: cell-based; settings: for IC50: responses to 10 μM capsaicin, capsazepine 0.01-100 μM
T3 construct: endogenous in cells; host or cells: HEK-293 clones 5B11 and 5B5
T3 sequence (Q8NER1 whole entry): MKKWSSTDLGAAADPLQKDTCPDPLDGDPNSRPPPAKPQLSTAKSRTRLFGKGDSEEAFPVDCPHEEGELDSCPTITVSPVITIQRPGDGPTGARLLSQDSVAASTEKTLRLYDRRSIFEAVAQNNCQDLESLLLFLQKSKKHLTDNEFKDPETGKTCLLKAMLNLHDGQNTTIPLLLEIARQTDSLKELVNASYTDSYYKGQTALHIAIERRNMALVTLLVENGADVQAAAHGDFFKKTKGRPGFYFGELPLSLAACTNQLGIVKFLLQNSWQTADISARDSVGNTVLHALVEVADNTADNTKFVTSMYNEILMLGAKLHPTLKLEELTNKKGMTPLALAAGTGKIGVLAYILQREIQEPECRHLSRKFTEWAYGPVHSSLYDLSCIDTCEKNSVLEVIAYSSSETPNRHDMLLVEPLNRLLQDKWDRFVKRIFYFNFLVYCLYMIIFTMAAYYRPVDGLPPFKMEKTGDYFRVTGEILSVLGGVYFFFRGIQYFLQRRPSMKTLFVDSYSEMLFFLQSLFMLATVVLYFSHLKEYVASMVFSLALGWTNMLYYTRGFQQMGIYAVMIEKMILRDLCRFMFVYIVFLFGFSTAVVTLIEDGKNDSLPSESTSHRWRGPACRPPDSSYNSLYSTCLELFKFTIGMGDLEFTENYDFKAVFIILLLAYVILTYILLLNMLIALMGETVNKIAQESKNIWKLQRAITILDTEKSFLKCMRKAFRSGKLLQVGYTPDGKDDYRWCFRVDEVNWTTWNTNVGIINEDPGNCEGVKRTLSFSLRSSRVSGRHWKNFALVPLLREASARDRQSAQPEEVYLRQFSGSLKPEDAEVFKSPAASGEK

[4] = cited from earlier work
[5] = target: T4, Mineralocorticoid receptor (MR) (Homo sapiens, UniProt P08235); assay: MR Gal4-DBD UAS β-lactamase reporter assay, HEK/UAS/GAL4-MR clone 1B4; assay type: cell-based
T4 construct: expressed in transfected cells; host or cells: HEK293 7xUAS-β-lactamase line (HEKUASBLA), clone 1B4. pKI-Gal4-DBD-MR was integrated by homologous recombination
T4 sequence (P08235 726-964 limits assumed): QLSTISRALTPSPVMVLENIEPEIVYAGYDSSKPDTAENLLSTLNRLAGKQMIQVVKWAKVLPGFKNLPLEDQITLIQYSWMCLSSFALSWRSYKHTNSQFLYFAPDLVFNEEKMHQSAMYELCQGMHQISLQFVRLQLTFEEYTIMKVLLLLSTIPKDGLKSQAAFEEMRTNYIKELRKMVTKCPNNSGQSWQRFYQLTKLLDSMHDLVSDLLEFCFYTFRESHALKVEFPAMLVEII

T1 sequence (P32245 whole entry): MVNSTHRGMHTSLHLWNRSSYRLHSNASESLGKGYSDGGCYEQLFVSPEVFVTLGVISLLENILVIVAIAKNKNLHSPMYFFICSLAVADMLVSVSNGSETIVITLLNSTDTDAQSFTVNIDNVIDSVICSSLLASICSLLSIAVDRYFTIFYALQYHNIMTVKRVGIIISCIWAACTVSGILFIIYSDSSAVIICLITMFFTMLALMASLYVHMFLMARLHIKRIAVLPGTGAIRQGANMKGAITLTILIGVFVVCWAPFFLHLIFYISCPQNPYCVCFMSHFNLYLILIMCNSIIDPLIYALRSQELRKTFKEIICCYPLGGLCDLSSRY

Compound: HS024
inhibition of the response to α-MSH or NDP-α-MSH [1]: inhibited in a concentration-dependant manner

Compound: CC(C)(c1ccc(OCC2CO2)cc1)c1ccc(OCC2CO2)cc1 (centres unmarked) [BADGE]
inhibition of cell response to rosiglitazone [2]: Inhibition of the cell response to the stimuli

IC50 ([3]; clone 5B5): 7.1 µM | IC50 ([3]; clone 5B11): 12.8 µM
Compound: Oc1cc2c(cc1O)CN(C(=S)NCCc1ccc(Cl)cc1)CCC2 [capsazepine]
effect on VR1 responses to capsaicin ([3]; 50 μM capsazepine, clones 5B11 and 5B5): failed to respond to any concentration of capsaicin; also recorded: inhibited

Compound: SNARF-4F carboxylic acid
pKa [4]: ~6.4

EC50 [5]: 0.004 µM
Compound: C[C@]12CCC(=O)C=C1CC[C@@H]1[C@@H]2[C@@H](O)C[C@@]2(C)[C@H]1CC[C@]2(O)C(=O)CO [Cortisol]

Compound: C=C(C)[C@]12C[C@@H](C)[C@@]34O[C@](Cc5ccccc5)(O[C@@H]1[C@@H]3C=C(COC(=O)Cc1ccc(O)c(OC)c1)C[C@]1(O)C(=O)C(C)=C[C@@H]41)O2 [resiniferatoxin]
EC50 [3]: 0.427 µM
